# Experimental data: patent US20020132220A1, “Use of selectin antagonists in organ preservation solutions” (priority 2000, published 2002)
# Where a name gives a salt, the structure may show the parent alone.
# Experiments:
# rat kidney [1] = assay: Syngeneic rat kidney transplantation (Lewis to Lewis) after flushing the kidney with perfusate; ischemia/reperfusion injury; type: in vivo; conditions: for Blood Urea Nitrogen / Serum Creatinine / GFR: syngeneic transplantation; for GFR: 4° C., 30 min on ice
# Procedure: (§1) To determine the effects of bimosiamose on the ischemia/reperfusion component of transplant injury, the following experiment was performed. To test bimosiamose solutions, a rat kidney is flushed with a solution containing bimosiamose (compound 1, 1,6-bis-(3-(3-carbomethylphenyl)-4-(2-α-D-mannopyranosyloxy)phenyl)hexane disodium salt, prepared according to the procedure described in U.S. Pat. No. 5,919,768) upon harvest from a donor and prior to placement into a recipient, to determine whether or not there is any protective effect. Rats for both examples were supplied by Harlan. A syngeneic transplantation model (Lewis rat to Lewis rat) was utilized. In this model, the immune system mediated rejection component is not relevant since the donor and recipient are of similar genetic background (syngeneic). In this experiment, test bimosiamose solutions were made up in a concentration of 100 mg/ml in phosphate-buffered saline solution, at a pH of 7.4. Test amounts of bimoisamose solution (as indicated in column 1 of Table 1) were added to Collins solution, to form the test perfusate solution. The Collins solution was purchased from Baxter, and contained 740 mg dibasic potassium phosphate, 205 mg monobasic potassium phosphate, 112 mg potassium chloride and 84 mg sodium bicarbonate per 100 mL solution, at pH 7.4. The test perfusate solution was cooled to a temperature of 4° C., and then 2 ml was utilized to perfuse the organ, which was afterwards maintained on ice for thirty minutes. Perfusion pressure was at or below physiologic pressure during the perfusion.
# (§2) Following the 30 minute cold-temperature perfusion, transplantation was performed by transplanting a graft organ using end-to-end anastomosis of the renal artery, vein and ureter, with a simultaneous contralateral nephrectomy, wherein when the graft fails, the recipient does shortly thereafter.
# This injury is the result of 30 minutes of cold ischemia with an additional 30 minutes of warm ischemia during the surgical re-anastomosis. N in the first column of Table 1 indicates sample size, i.e.—when N=6, six animals were tested. […] These observations are supported by reductions in serum creatinine and blood urea nitrogen (see Table 1). Therefore, Table 1 illustrates a statistically significant improvements associated with bimosiamose treatment.
# rat kidney [2] = assay: Allogeneic rat kidney transplantation (Lewis to ACI) after flushing the kidney with perfusate; graft/recipient survival; type: in vivo, Lewis rats to ACI rats; conditions: for Survival: allogeneic transplantation, no immunosuppression
# Procedure: as §1, §2
# The procedure described in Example 1 was also utilized to determine what effect bimosiamose solutions would have when transplantation between donor and recipient were not matched for histocompatibility (test rats are allogenic). […]
# [3] = kidney perfused with 0.5 mg/ml in Collins solution
# [4] = kidney perfused with 1.0 mg/ml in Collins solution
smiles,measurement,setting,value
"O=C(O)Cc1cccc(-c2cc(CCCCCCc3ccc(OC4OC(CO)C(O)C(O)C4O)c(-c4cccc(CC(=O)O)c4)c3)ccc2OC2OC(CO)C(O)C(O)C2O)c1 [Cmpd. 1, 1,6-bis-(3-(3-carbomethylphenyl)-4-(2-α-D-mannopyranosyloxy)phenyl)hexane disodium salt]",Renal function (in words),rat kidney [1]; flushing the organ with a solution containing 1 mg/2 ml or 2 mg/2 ml,preservation of renal function
same,Blood Urea Nitrogen,rat kidney [1]; [3],49.8 ± 24.2 mg/dL
same,Serum Creatinine,rat kidney [1]; [3],0.62 ± 0.23 mg/dL
same,GFR,rat kidney [1]; [3],0.70 ± 0.37 mL/min
same,Blood Urea Nitrogen,rat kidney [1]; [4],32.0 ± 4.6 mg/dL
same,Serum Creatinine,rat kidney [1]; [4],0.48 ± 0.08 mg/dL
same,GFR,rat kidney [1]; [4],0.91 ± 0.08 mL/min
same,Survival,rat kidney [2]; kidney flushed with 0.5 mg/ml,18.50 ± 6.45 days
same,Survival,rat kidney [2]; kidney flushed with 1.0 mg/ml,30.25 ± 13.25 days
same,Graft function/survival (in words),"rat kidney [2]; renal allografts flushed with solution, without standard immunosuppressive agents",dose-related preservation of graft function/survival
